molecular target: human RIP1 kinase domain (2-375) (Homo sapiens (Human), UniProt Q13546); test: biochemical; format: biochemical; conditions: human RIP1 kinase domain (2-375), 50 uM ATP, 2 hours incubation, Transcreener ADP assay; read-out: RIP1 Ki
How it was run: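 50 nM purified kinase domain from baculovirus-infected insect cells, incubated 2 h with compound in 50 mM Hepes pH 7.5, 30 mM MgCl2, 1 mM DTT, 50 uM ATP, 0.002% Brij-35, 0.5% DMSO. ADP formation read by Transcreener FP at 633 nm excitation. Ki^app fitted with the Morrison tight-binding equation.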

human RIP1 kinase domain (2-375), sequence (Q13546 2-375): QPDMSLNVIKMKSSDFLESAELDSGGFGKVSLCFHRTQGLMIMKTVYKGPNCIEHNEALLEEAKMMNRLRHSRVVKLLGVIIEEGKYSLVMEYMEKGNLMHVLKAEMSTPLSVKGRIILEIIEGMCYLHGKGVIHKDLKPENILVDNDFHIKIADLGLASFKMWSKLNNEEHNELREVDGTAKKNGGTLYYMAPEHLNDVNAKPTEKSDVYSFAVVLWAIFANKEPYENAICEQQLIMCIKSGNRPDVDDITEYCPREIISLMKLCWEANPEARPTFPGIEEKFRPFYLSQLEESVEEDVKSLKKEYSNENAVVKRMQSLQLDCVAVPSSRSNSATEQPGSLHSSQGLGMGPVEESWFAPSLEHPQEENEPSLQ

Ki [nM]	SMILES
46.2	CN1C(=O)[C@@H](NC(=O)c2ncn(Cc3ccccc3)n2)CCn2nc([C@@H]3CC3(F)F)cc21 [Example 147, 1-benzyl-N-((S)-2-((S)-2,2-difluorocyclopropyl)-4-methyl-5-oxo-5,6,7,8-tetrahydro-4H-pyrazolo[1,5-a][1,3]diazepin-6-yl)-1H-1,2,4-triazole-3-carboxamide]
40	CN1C(=O)[C@@H](NC(=O)c2ncn(Cc3ccccc3)n2)CCn2nc([C@H]3CC3(F)F)cc21 [Example 148, 1-benzyl-N-((S)-2-((R)-2,2-difluorocyclopropyl)-4-methyl-5-oxo-5,6,7,8-tetrahydro-4H-pyrazolo[1,5-a][1,3]diazepin-6-yl)-1H-1,2,4-triazole-3-carboxamide]
26.6	CN1C(=O)[C@@H](NC(=O)c2ncn(Cc3ccccc3)n2)CCn2ccnc21 [Example 151, (S)-1-benzyl-N-(9-methyl-8-oxo-6,7,8,9-tetrahydro-5H-imidazo[1,2-a][1,3]diazepin-7-yl)-1H-1,2,4-triazole-3-carboxamide]
38.2	CN1C(=O)[C@@H](NC(=O)c2ncn(Cc3ccccc3)n2)CCCn2nccc21 [Example 155, (S)-1-benzyl-N-(4-methyl-5-oxo-4,5,6,7,8,9-hexahydropyrazolo[1,5-a][1,3]diazocin-6-yl)-1H-1,2,4-triazole-3-carboxamide]
986	Cc1cc2n(n1)CC[C@H](NC(=O)c1ncn([C@H](C)c3ccccc3)n1)C(=O)N2C [Example 158, N-((S)-2,4-dimethyl-5-oxo-5,6,7,8-tetrahydro-4H-pyrazolo[1,5-a][1,3]diazepin-6-yl)-1-((R)-1-phenylethyl)-1H-1,2,4-triazole-3-carboxamide]
24.5	CN1C(=O)[C@@H](NC(=O)c2ncn(CC3CCCC3)n2)CCn2nc(C3CC3)cc21 [Example 160, (S)-1-(cyclopentylmethyl)-N-(2-cyclopropyl-4-methyl-5-oxo-5,6,7,8-tetrahydro-4H-pyrazolo[1,5-a][1,3]diazepin-6-yl)-1H-1,2,4-triazole-3-carboxamide]
36.3	Cc1cc2n(n1)CC[C@H](NC(=O)c1ncn(CC3CCCC3)n1)C(=O)N2C [Example 162, (S)-1-(cyclopentylmethyl)-N-(2,4-dimethyl-5-oxo-5,6,7,8-tetrahydro-4H-pyrazolo[1,5-a][1,3]diazepin-6-yl)-1H-1,2,4-triazole-3-carboxamide]
22.3	Cc1cc2n(n1)CC[C@H](NC(=O)c1ncn(CC3CCCCC3)n1)C(=O)N2C [Example 163, (S)-1-(cyclohexylmethyl)-N-(2,4-dimethyl-5-oxo-5,6,7,8-tetrahydro-4H-pyrazolo[1,5-a][1,3]diazepin-6-yl)-1H-1,2,4-triazole-3-carboxamide]
24.5	Cc1cc2n(n1)CC[C@H](NC(=O)c1ncn(Cc3ccc(F)cc3)n1)C(=O)N2C [Example 164, (S)-N-(2,4-dimethyl-5-oxo-5,6,7,8-tetrahydro-4H-pyrazolo[1,5-a][1,3]diazepin-6-yl)-1-(4-fluorobenzyl)-1H-1,2,4-triazole-3-carboxamide]
47.4	Cc1cc2n(n1)CC[C@H](NC(=O)c1ncn([C@@H](C)c3ccccc3)n1)C(=O)N2C [Example 165, N-((S)-2,4-dimethyl-5-oxo-5,6,7,8-tetrahydro-4H-pyrazolo[1,5-a][1,3]diazepin-6-yl)-1-((S)-1-phenylethyl)-1H-1,2,4-triazole-3-carboxamide]
20	Cc1cnn2c1N(C)C(=O)[C@@H](NC(=O)c1ncn(Cc3ccccc3)n1)CC2 [Example 166, (S)-1-benzyl-N-(3,4-dimethyl-5-oxo-5,6,7,8-tetrahydro-4H-pyrazolo[1,5-a][1,3]diazepin-6-yl)-1H-1,2,4-triazole-3-carboxamide]
13.2	Cc1cc2n(n1)CC[C@H](NC(=O)c1ncn(Cc3ccc(Cl)cc3)n1)C(=O)N2C [Example 170, (S)-1-(4-chlorobenzyl)-N-(2,4-dimethyl-5-oxo-5,6,7,8-tetrahydro-4H-pyrazolo[1,5-a][1,3]diazepin-6-yl)-1H-1,2,4-triazole-3-carboxamide]

The next lines start with the compound.

SMILES	Ki [nM]
CN1C(=O)[C@@H](NC(=O)c2n[nH]c3ccc(Cl)nc23)COc2ccccc21 [Example 143, 5-chloro-N-[(3S)-5-methyl-4-oxo-2,3-dihydro-1,5-benzoxazepin-3-yl]-1H-pyrazolo[4,3-b]pyridine-3-carboxamide]	51.5
CN1C(=O)[C@@H](NC(=O)c2n[nH]c3ccc(C4CC4)nc23)COc2ccccc21 [Example 144, 5-cyclopropyl-N-[(3S)-5-methyl-4-oxo-2,3-dihydro-1,5-benzoxazepin-3-yl]-1H-pyrazolo[4,3-b]pyridine-3-carboxamide]	248
CN1C(=O)C(NC(=O)c2nnc(Cc3ccccc3)[nH]2)CCn2nc3c(c21)CSC3 (stereo not shown) [Example 145, 5-benzyl-N-(1-methyl-2-oxo-1,2,3,4,5,10-hexahydro-8H-thieno[3′,4′:3,4]pyrazolo[1,5-a][1,3]diazepin-3-yl)-4H-1,2,4-triazole-3-carboxamide]	78.6
CN1C(=O)[C@@H](NC(=O)c2cn(Cc3ccc(F)c(F)c3)cn2)CCn2nccc21 [Example 146, (S)-1-(3,4-difluorobenzyl)-N-(4-methyl-5-oxo-5,6,7,8-tetrahydro-4H-pyrazolo[1,5-a][1,3]diazepin-6-yl)-1H-imidazole-4-carboxamide]	301
CN1C(=O)[C@@H](NC(=O)c2nnn3c2C[C@H](C(F)(F)F)CC3)COc2ccccc21 [Example 149, (R)-N-((S)-5-methyl-4-oxo-2,3,4,5-tetrahydrobenzo[b][1,4]oxazepin-3-yl)-5-(trifluoromethyl)-4,5,6,7-tetrahydro-[1,2,3]triazolo[1,5-a]pyridine-3-carboxamide]	64.3
CN1C(=O)[C@@H](NC(=O)c2nnn3c2C[C@@H](C(F)(F)F)CC3)COc2ccccc21 [Example 150, (S)-N-((S)-5-methyl-4-oxo-2,3,4,5-tetrahydrobenzo[b][1,4]oxazepin-3-yl)-5-(trifluoromethyl)-4,5,6,7-tetrahydro-[1,2,3]triazolo[1,5-a]pyridine-3-carboxamide]	125
CN1C(=O)C(NC(=O)c2cc3c(cn2)cnn3[C@H]2CCOC2)COc2ccccc21 (stereo partly drawn) [Example 156, N-(5-methyl-4-oxo-2,3,4,5-tetrahydrobenzo[b][1,4]oxazepin-3-yl)-1-((S)-tetrahydrofuran-3-yl)-1H-pyrazolo[4,3-c]pyridine-6-carboxamide]	68.3
CN1C(=O)[C@@H](NC(=O)c2cc3c(cn2)CO[C@]3(C)CC(F)(F)F)COc2ccccc21 [Example 161, (R)-1-methyl-N-((S)-5-methyl-4-oxo-2,3,4,5-tetrahydrobenzo[b][1,4]oxazepin-3-yl)-1-(2,2,2-trifluoroethyl)-1,3-dihydrofuro[3,4-c]pyridine-6-carboxamide]	8.9
CN1C(=O)[C@@H](NC(=O)c2cc3c(cn2)CO[C@@]3(C)CC(F)(F)F)COc2ccccc21 [Example 168, (S)-1-methyl-N-((S)-5-methyl-4-oxo-2,3,4,5-tetrahydrobenzo[b][1,4]oxazepin-3-yl)-1-(2,2,2-trifluoroethyl)-1,3-dihydrofuro[3,4-c]pyridine-6-carboxamide]	269
CN1C(=O)[C@@H](NC(=O)c2cc3c(cn2)CO[C@]32CCOC2)COc2ccccc21 [Example 169, (R)-N-((S)-5-methyl-4-oxo-2,3,4,5-tetrahydrobenzo[b][1,4]oxazepin-3-yl)-4,5-dihydro-2H,3′H-spiro[furan-3,1′-furo[3,4-c]pyridine]-6′-carboxamide]	19.3
